Among the data in ChEMBL document CHEMBL5465560, “Selectivity Literature for EUbOPEN Chemogenomic Library” (2024) are % of control and % binding values, retold here.

Experiment [1] deals with T1, Phosphatidylinositol 3-kinase C2 domain-containing subunit gamma (Homo sapiens) (UniProt O75747).
T1 sequence (whole entry): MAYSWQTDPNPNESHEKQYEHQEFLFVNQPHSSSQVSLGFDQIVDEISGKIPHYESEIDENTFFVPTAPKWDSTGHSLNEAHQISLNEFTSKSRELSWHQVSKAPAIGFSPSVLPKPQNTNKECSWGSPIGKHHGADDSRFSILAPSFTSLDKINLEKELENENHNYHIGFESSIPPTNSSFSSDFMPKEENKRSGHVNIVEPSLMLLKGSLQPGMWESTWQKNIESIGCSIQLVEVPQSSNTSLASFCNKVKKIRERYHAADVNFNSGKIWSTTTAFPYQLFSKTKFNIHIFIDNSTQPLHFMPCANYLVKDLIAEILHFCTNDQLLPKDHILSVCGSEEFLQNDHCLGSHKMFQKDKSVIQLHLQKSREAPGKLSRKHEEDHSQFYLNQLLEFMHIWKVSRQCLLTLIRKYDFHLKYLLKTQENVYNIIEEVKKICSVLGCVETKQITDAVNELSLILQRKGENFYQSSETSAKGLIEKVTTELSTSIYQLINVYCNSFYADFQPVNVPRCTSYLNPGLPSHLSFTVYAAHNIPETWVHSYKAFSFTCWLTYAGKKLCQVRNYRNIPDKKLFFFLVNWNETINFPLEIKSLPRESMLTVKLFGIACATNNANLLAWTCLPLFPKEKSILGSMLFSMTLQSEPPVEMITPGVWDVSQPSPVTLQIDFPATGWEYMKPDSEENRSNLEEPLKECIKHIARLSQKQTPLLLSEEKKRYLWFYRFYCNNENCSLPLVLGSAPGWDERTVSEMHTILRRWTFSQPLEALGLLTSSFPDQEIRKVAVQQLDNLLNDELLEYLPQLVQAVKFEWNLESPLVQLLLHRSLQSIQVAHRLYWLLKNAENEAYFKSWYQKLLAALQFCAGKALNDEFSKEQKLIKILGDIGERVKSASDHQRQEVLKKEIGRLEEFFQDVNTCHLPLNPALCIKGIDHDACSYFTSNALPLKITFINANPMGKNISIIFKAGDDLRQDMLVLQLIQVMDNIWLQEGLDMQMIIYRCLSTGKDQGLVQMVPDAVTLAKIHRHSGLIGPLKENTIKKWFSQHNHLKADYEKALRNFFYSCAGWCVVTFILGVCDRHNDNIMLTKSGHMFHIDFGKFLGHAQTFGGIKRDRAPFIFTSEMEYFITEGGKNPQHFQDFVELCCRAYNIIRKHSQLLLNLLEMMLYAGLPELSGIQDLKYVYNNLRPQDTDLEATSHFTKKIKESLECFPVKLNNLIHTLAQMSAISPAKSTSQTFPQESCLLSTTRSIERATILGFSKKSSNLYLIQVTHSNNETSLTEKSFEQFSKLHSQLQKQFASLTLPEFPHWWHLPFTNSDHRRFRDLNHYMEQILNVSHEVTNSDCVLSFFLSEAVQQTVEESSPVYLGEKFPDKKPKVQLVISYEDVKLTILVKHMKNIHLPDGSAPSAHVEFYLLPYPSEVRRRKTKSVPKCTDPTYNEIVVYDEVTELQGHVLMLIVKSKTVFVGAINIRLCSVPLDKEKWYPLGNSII
As to the kind of experiment: Selectivity interaction (KinomeScan (DiscoverX)) EUB0000666a PIK3C2G. To be noted: at 10 µM.

Experiment [2] concerns the target Serine/threonine-protein kinase RIO2 (Homo sapiens) (UniProt Q9BVS4). The experiment can be described thus: Selectivity interaction (KinomeScan (DiscoverX)) EUB0000229b RIOK2. To be noted: at 10 µM.
The target of experiment [3] is T2, Serine/threonine-protein kinase haspin (Homo sapiens) (UniProt Q8TF76).
T2 sequence (whole entry): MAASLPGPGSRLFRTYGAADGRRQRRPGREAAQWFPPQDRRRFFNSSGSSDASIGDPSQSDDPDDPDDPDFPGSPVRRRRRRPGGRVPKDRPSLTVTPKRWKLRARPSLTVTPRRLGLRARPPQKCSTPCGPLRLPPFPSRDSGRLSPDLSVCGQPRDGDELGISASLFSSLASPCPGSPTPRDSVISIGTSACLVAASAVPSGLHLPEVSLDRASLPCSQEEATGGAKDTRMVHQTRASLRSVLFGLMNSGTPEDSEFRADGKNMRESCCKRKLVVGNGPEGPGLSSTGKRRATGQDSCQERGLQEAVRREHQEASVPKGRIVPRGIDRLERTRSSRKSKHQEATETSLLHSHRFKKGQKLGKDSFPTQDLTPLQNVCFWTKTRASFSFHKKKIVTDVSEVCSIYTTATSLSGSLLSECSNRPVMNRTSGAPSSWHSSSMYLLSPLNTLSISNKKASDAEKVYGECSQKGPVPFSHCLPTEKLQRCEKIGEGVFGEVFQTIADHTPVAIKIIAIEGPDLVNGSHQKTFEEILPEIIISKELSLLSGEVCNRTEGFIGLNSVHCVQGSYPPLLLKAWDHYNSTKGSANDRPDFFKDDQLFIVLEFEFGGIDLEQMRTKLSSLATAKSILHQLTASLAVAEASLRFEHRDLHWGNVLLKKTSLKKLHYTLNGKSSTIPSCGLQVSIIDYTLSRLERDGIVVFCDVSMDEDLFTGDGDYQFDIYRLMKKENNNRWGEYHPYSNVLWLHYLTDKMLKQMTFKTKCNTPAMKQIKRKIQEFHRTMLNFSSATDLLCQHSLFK
As to the kind of experiment: Selectivity interaction (KinomeScan (DiscoverX)) EUB0001079a GSG2. As to conditions: at 1 µM.

Experiment [4] deals with Non-receptor tyrosine-protein kinase TYK2 (Homo sapiens, UniProt P29597). As to the kind of experiment: Selectivity interaction (KinomeScan (DiscoverX)) EUB0001079a TYK2. As to conditions: at 1 µM.
Experiment [5] concerns the target Ribosomal protein S6 kinase alpha-2 (Homo sapiens) (UniProt Q15349). The experiment can be described thus: Selectivity interaction (KinomeScan (DiscoverX)) EUB0000092b RPS6KA2. To be noted: at 10 µM.
The target in experiment [6] is Mitogen-activated protein kinase 10 (Homo sapiens, UniProt P53779). As to the kind of experiment: Selectivity interaction (KinomeScan (DiscoverX)) EUB0000618a MAPK10. To be noted: at 10 µM.
Experiment [7] has as its target Ribosomal protein S6 kinase alpha-5 (Homo sapiens) (UniProt O75582). As to the kind of experiment: Selectivity interaction (KinomeScan (DiscoverX)) EUB0000618a RPS6KA5. To be noted: at 10 µM.

Ribosomal protein S6 kinase alpha-2 (Homo sapiens), sequence (Q15349 whole entry): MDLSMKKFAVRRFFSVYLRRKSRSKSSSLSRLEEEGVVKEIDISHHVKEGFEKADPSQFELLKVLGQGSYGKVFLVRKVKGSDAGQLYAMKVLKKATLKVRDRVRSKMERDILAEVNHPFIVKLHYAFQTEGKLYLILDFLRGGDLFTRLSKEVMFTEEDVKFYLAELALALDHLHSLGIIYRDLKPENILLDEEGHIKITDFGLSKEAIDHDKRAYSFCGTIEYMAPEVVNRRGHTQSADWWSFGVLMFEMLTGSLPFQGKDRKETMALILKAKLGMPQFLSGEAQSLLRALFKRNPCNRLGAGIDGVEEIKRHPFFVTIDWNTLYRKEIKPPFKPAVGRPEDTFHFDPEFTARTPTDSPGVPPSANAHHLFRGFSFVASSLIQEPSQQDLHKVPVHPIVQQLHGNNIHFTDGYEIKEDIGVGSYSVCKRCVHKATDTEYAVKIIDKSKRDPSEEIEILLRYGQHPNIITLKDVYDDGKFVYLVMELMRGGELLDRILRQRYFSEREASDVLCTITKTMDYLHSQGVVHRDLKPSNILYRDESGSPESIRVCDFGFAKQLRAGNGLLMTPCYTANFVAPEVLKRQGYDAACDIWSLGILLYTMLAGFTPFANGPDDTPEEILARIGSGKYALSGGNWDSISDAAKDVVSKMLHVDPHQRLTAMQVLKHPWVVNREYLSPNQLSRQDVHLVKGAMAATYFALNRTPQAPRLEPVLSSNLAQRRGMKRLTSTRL
Non-receptor tyrosine-protein kinase TYK2, sequence (P29597 whole entry): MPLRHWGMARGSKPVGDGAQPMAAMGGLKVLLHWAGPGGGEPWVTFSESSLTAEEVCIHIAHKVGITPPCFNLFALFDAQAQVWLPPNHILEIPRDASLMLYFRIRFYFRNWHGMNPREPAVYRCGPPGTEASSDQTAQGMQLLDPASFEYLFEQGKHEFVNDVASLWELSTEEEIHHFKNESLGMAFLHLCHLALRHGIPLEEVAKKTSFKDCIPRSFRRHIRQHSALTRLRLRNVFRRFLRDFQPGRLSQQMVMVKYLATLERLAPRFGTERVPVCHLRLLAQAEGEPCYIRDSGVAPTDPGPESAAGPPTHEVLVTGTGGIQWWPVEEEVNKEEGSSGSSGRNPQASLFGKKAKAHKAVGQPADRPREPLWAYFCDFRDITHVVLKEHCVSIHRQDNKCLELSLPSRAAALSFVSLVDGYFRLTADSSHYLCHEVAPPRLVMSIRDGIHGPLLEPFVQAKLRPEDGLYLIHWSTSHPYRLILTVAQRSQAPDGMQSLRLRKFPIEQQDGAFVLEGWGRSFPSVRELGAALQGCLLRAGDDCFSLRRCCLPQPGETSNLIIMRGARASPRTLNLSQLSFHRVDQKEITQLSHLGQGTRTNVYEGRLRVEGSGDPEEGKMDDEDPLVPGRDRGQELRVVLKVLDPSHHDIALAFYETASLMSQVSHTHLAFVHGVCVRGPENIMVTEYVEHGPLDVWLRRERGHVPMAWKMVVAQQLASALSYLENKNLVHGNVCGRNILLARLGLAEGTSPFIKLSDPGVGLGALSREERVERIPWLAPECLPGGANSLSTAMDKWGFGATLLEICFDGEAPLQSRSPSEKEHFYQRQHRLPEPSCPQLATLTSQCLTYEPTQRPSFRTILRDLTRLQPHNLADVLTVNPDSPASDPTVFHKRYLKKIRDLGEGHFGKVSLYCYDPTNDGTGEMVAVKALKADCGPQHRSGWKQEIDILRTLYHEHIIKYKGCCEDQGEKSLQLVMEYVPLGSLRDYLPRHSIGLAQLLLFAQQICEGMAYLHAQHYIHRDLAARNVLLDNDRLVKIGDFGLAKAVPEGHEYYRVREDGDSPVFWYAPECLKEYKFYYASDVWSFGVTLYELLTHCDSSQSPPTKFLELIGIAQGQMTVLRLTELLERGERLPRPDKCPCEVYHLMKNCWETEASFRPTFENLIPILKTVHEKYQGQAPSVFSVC
Ribosomal protein S6 kinase alpha-5 (Homo sapiens), sequence (O75582 whole entry, looked up): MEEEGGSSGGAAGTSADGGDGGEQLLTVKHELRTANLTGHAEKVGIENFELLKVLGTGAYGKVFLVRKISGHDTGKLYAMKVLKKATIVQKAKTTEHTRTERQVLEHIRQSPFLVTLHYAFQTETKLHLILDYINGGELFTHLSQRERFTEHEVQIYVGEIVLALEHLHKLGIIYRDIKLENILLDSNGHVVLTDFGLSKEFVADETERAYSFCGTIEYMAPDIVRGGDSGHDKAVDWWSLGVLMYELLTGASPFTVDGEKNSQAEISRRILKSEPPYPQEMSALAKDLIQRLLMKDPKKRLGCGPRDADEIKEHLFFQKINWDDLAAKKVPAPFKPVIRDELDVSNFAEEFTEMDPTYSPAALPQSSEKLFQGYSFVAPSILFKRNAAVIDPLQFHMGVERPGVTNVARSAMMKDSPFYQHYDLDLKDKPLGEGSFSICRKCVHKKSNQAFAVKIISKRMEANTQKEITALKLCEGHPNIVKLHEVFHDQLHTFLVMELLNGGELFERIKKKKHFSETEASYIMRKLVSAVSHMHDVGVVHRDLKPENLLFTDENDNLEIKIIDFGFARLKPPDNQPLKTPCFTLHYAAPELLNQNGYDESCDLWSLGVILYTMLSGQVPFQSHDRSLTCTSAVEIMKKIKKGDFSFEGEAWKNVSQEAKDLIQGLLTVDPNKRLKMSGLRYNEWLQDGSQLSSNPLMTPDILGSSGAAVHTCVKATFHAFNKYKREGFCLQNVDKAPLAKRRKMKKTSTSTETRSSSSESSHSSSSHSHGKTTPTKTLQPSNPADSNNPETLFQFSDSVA
Mitogen-activated protein kinase 10, sequence (P53779 whole entry): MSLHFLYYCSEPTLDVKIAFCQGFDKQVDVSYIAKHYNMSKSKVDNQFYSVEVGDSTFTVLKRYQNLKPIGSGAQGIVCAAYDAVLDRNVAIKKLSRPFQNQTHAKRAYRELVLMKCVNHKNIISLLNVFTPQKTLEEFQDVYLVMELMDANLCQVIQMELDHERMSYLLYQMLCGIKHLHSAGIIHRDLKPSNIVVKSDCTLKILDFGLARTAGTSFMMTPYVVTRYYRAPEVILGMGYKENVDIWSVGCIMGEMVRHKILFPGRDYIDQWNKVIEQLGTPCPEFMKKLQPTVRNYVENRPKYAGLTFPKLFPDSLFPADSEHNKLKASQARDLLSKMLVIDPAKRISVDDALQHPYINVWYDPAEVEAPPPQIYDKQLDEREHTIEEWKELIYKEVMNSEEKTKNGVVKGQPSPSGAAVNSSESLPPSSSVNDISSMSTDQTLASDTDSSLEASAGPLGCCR
Serine/threonine-protein kinase RIO2 (Homo sapiens), sequence (Q9BVS4 whole entry, looked up): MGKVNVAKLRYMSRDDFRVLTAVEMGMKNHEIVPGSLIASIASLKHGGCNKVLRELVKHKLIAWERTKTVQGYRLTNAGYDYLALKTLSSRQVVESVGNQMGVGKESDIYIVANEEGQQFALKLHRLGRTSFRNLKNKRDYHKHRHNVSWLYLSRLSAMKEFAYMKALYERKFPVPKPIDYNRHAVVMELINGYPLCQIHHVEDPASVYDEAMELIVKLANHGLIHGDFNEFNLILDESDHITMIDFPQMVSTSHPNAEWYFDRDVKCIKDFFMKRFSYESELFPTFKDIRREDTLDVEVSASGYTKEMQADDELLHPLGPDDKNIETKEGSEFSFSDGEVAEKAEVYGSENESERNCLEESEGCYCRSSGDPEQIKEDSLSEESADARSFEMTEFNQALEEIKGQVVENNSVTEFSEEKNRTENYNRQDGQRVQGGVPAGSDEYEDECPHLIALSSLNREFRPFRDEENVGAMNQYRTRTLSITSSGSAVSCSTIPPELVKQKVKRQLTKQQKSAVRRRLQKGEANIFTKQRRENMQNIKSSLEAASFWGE

The compound `O=C(NOC[C@H](O)CO)c1ccc(F)c(F)c1Nc1ccc(I)cc1F` gave a % of control in experiment [1] of 48%.

In experiment [2], `COc1cc(N(C)c2ccnc3ccc(C(F)(F)F)cc23)cc(OC)c1OC` came in with a % binding of 44%. On to `Nc1cnc(N2CCc3cc(S(=O)(=O)Nc4c(F)cc(Cl)cc4F)cc(N4CCCC4=O)c32)nc1` [TP-020n], for which the % of control in experiment [3] and in experiment [4] was 100% each time.

In experiment [5], `CCC(=O)N1CCN(c2ccc(-n3c(=O)ccc4cnc5ccc(-c6cnc7ccccc7c6)cc5c43)cc2C(F)(F)F)CC1` gave a % of control of 85%. Turning to `O[C@H]1CC[C@H](Nc2ncc3nc(Nc4c(F)cc(F)cc4F)n([C@H]4CCOC4)c3n2)CC1`, the % of control turned out to be 0% in experiment [6] and 100% in experiment [7].
